Laboratory results taken from patent publication US20260176249A1, “PROTEIN KINASE INHIBITOR, PREPARATION METHOD THEREFOR, AND APPLICATION THEREOF” (SHANDONG LUYE PHARMACEUTICAL CO., LTD., priority 2021, published 2026).
Like-named read-outs stand apart in the source and are kept apart here. Blank lines part the entries; values can stand above or below the compound they belong to.

Experiments:
PLK1 kinase = biological target: T1, PLK1 kinase (Homo sapiens, UniProt P53350); assay: Inhibitory activity on PLK1 kinase; format: biochemical; conditions: for Imax: maximum effect caused by the compound at the test concentration
T1 construct: purchased Carnabio (Carna Biosciences) 05-157
Procedure: Detection solution PerkinElmer #TRF0218-M
Detection instrument PerkinElemer EnVision
a. Using the Echo machine, the compounds to be tested were diluted by 1:3 on a 384-well plate, and the highest concentration was 1 μM, with a total of 10 concentration points, and each concentration was tested in duplicate wells.
b. 5 μL/well of PLK1 kinase and peptide substrate mixture were added to the assay plate (containing controls).
d. The reaction was initiated by adding 5 μL/well of ATP solution;
e. The assay plate was centrifuged at 1000 rpm for about 15 seconds, a film was used to seal the assay plate which was incubated at 23° C. for a period of time;
f. A detection solution was added to all wells of the assay plate;
g. The assay plate was centrifuged at 1000 rpm for approximately 15 seconds, a film was used to seal the assay plate which was incubated at 23° C. for 60 min.
h. The assay plate was read on EnVision. The test results were analyzed using XLFIT5 software.

HCT116 cells = assay: Inhibitory activity on HCT116 cell proliferation (ATPlite); format: cell-based; conditions: Homo sapiens
Procedure: Cell culture medium: RPMI1640+10% FBS (GBICO)
Cell culture plate: 96-well plate (Shanghai Jingan Biotechnology Co., Ltd.)
Detection kit: ATPlite 1step Luminescence (PerkinElmer)
Detection instrument: BioTek multifunctional microplate reader
2. Test method: HCT116 cells in the logarithmic growth phase were seeded into a white-wall clear-bottom 96-well plate at a density of 720 cells per well, and cultured overnight in a 37° C., 5% CO2 incubator. […] After adding the drug, culturing was continued for 72 h in a 37° C., 5% CO2 incubator.
GraphPad Prism 7.0 was used to process the data, the cell inhibition rate curve was obtained and IC50 was calculated.

[1] = Metabolic stability in mouse liver microsomes; format: in vitro ADME
Procedure: (§1) a. Preparation of phosphate buffer: The phosphate buffer powder was dissolved in 100 mL of pure water to prepare a phosphate buffer solution with a pH of 7.4 and a concentration of 100 mM, which was stored in a 4° C. refrigerator for later use.
(§2) b. All samples as well as the reference testosterone were dissolved in DMSO to obtain a 10 mM stock solution. The 10 mM stock solution was diluted to 100 μM with acetonitrile to obtain a working solution for later use.
(§3) c. Preparation of liver microsome working solution: Each of the mouse, rat and human liver microsome stock solutions (at concentration of 20 mg/mL) was taken and diluted to 0.56 mg/mL with 100 mM phosphate buffer solution to obtain the liver microsome working solution.
(§4) d. Preparation of solution: An appropriate amount of MgCl2 was weighed and used to prepare a MgCl2 solution at a concentration of 60 mM using 100 mM phosphate buffer solution. An appropriate amount of NADPH was weighed and used to prepare a NADPH solution at a concentration of 20 mM using 100 mM phosphate buffer solution. An equal volume of 60 mM MgCl2 solution was added to prepare an NADPH working solution containing 10 mM NADPH and 30 mM MgCl2. An acetonitrile solution containing 20 ng/mL tolbutamide was prepared as the stop solution.
(§5) e. Liver microsome incubation: 2 μL of each compound and the positive drug testosterone working solution were added to 178 μL of liver microsome working solution (0.56 mg/mL), mixed gently, and pre-incubated in a vibrating constant temperature water bath pot at 37° C. for 10 min. After adding 20 μL of NADPH working solution, the mixture was placed in a vibrating constant temperature water bath pot at 37° C. and timed incubation was started for 5, 10, 20, 30 and 60 min.
(§6) f. Stopping reaction: After the corresponding time of incubation, 400 μL of stop solution was added to stop the reaction, and then the sample was immediately shaken for 1 min. The sample was centrifuged at 13500 rpm for 10 min at 10° C. After centrifugation, the supernatant was removed, diluted with water according to the needs of each compound, and analyzed by LC-MS. For the 0-minute sample, the stop solution was first added and mixed evenly with the liver microsomes, and then the NADPH working solution was added. For the negative control sample, 20 μL of 30 mM MgCl2 solution was added instead of the NADPH working solution.
(§7) T1/2 and CLint(mic) were calculated by the following formula.
(§8) [formula] [formula] • CLint(mic)=0.693/T1/2/liver microsomal protein concentration during incubation (mg/mL) • CLint(ver)=CLint(mic)*liver microsomal protein (mg)/liver weight (g)*liver weight to body weight ratio
(§9) Liver microsomal protein (mg)/liver weight (g): the value is 45 in both animal and human species.
(§10) Liver weight to body weight ratio: the parameters for mice, rats and humans are 88, 40 and 20 g/kg respectively.

[2] = Metabolic stability in rat liver microsomes; format: in vitro ADME
Procedure: as §1, §2, §3, §4, §5, §6, §7, §8, §9, §10

[3] = Metabolic stability in human liver microsomes; format: in vitro ADME
Procedure: as §1, §2, §3, §4, §5, §6, §7, §8, §9, §10

T1 sequence (P53350 whole entry): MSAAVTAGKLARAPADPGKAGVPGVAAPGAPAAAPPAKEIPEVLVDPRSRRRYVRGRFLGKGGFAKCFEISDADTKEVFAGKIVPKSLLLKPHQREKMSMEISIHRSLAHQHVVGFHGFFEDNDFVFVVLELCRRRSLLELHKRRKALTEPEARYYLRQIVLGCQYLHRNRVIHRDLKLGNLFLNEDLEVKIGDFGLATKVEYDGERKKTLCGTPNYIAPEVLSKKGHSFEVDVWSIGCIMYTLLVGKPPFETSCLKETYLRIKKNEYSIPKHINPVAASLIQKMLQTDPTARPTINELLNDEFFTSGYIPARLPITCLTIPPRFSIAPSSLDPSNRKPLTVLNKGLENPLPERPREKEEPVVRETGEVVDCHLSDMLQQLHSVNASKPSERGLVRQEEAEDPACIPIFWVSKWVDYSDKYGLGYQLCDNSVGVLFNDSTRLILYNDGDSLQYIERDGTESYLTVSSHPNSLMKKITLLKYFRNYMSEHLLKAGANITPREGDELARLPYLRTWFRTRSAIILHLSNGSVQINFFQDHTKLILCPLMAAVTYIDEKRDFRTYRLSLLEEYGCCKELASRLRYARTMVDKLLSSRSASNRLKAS

Structure (SMILES): CN1CCN(c2ccc(OC(F)(F)F)c(Nc3ncc4ccc5c(C(N)=O)nn(CC(F)(F)F)c5c4n3)c2)CC1 [Compound 28]
IC50 (PLK1 kinase): 0.67 nM | Imax (PLK1 kinase): 100.08%

Structure (SMILES): CN1CCN(c2ccc(OC(F)(F)F)c(Nc3ncc4ccc5c(C(N)=O)nn(C6CC6)c5c4n3)c2)CC1 [Compound 27]
IC50 (PLK1 kinase): 0.459 nM | Imax (PLK1 kinase): 100.24%

Imax (PLK1 kinase): 101.08%
Structure (SMILES): C[C@@H](Oc1cc(-n2cnc3ccc(CN4CCN(C)CC4)cc32)sc1C(N)=O)c1ccccc1C(F)(F)F [GSK461364, reference compound]

Structure (SMILES): CCn1nc(C(N)=O)c2ccc3cnc(Nc4cc(N5CCN(C)CC5)ccc4OC(F)(F)F)nc3c21 [Compound 29]
IC50 (HCT116 cells; HCT-116, 72 h): 77 nM

Structure (SMILES): CN1CCN(c2ccc(OC(F)(F)F)c(Nc3ncc4ccc5c(C(=O)NO)nn(CCO)c5c4n3)c2)CC1 [Compound 19]
IC50 (PLK1 kinase): 1.06 nM | Imax (PLK1 kinase): 99.97% | IC50 (HCT116 cells; HCT-116, 72 h): 96 nM | 60 min remaining amount [1]: 22.0% | Clearance rate [1]: Medium | CLint scaled at 1 µM ([1]; pH 7.4): 192 mL/min/kg | half-life at 1 µM ([1]; pH 7.4): 28.5 min | microsomal CLint at 1 µM ([1]; pH 7.4, read-out: CLint(mic)): 48.6 µL/min/mg | 60 min remaining amount [2]: 11.9% | Clearance rate [2]: Medium | CLint scaled at 1 µM ([2]; pH 7.4): 127 mL/min/kg | half-life at 1 µM ([2]; pH 7.4): 19.6 min | microsomal CLint at 1 µM ([2]; pH 7.4, read-out: CLint(mic)): 70.8 µL/min/mg | 60 min remaining amount [3]: 51.9% | Clearance rate [3]: Medium | CLint scaled at 1 µM ([3]; pH 7.4): 19.6 mL/min/kg | half-life at 1 µM ([3]; pH 7.4): 63.6 min | microsomal CLint at 1 µM ([3]; pH 7.4, read-out: CLint(mic)): 21.8 µL/min/mg

IC50 (PLK1 kinase; PLK1 kinase, highest concentration 1 μM, 10 points, read-out: IC50): 1.51 nM | Imax (PLK1 kinase): 99.99%
Structure (SMILES): CN1CCN(c2ccc(OC(F)(F)F)c(Nc3ncc4ccc5c(C(N)=O)cn(C)c5c4n3)c2)CC1 [Compound 22]

Structure (SMILES): CN1CCN(c2ccc(OC(F)(F)F)c(Nc3ncc4ccc5c(C(=O)NOCCO)nn(CCF)c5c4n3)c2)CC1 [Compound 30]
IC50 (PLK1 kinase): 0.776 nM | Imax (PLK1 kinase): 99.97%

IC50 (HCT116 cells; HCT-116, HCT116 cells, 72 h, read-out: IC50): 2720 nM
Structure (SMILES): CN1CCN(c2ccc(OC(F)(F)F)c(Nc3ncc4ncc5c(C(N)=O)nn(CCO)c5c4n3)c2)CC1 [Compound 6]
